Molecular target: Recombinant human ATX (Homo sapiens (Human), UniProt Q13822)
Assay: Assessing ATX inhibition (choline release, Amplex Red fluorescence)
Type: biochemical
Settings: ATX 10 nM, LPC 18:1 10 μM, pre-incubated at 37° C. for 20 minutes; mean of n≥2
Description: Reagents—LPC (oleoyl (18:1)) was purchased from Avanti Polar Lipids (Alabaster, Ala.) and solubilized in methanol to 20 mM. Amplex Red was obtained from Invitrogen Life Technologies (Paisley, UK) and dissolved in DMSO to 10 mM. Choline oxidase and horseradish peroxidase (HRP) were obtained from Sigma Aldrich (Dorset, UK) and dissolved in HBSS to 20 U/ml and 200 U/ml respectively. All reagents were stored at −20° C. in single use aliquots. All experimental measurements were performed in assay buffer made up immediately prior to use (HBSS, 0.01% BSA essentially fatty acid free).
Protein—Recombinant human ATX was prepared at Novartis (Basel, CH) in a human embryonic kidney (HEK) cell preparation, and stored in single use aliquots of […] (26 μM) stocks stored at −80° C.
Method—All experimental measurements should be performed in black 384 well polystyrene (low volume, round bottom, Corning (3676)) plates. PerkinElmer EnVision (Fluorescence Intensity/Absorbance Monochromator) or Tecan Infinite 200 PRO series plate reader was used to detect change in fluorescent intensity.
Assessing ATX inhibition—ATX activity was determined by measurement of released choline in reactions containing ATX (10 nM), choline oxidase (0.1 U/ml), HRP (100 U/ml), amplex red (50 μM) and LPC 18:1 (10 μM). Compounds of the invention should be prepared as 10 point serial dilutions from 1 μM in duplicate and pre-incubated with ATX at 37° C. for 20 minutes prior to the addition of remaining reagents. The liberated choline was measured from changes in fluorescence intensity (λex 530 nm, λm 590 nm) of the product resurofin at 37° C. every 2 minutes over a 40-minute period. ATX activity was measured as a slope of the linear portion of the progress curve, typically between 14 to 24 minutes.
Data analysis—Slope data was exported to Graphpad prism (Graphpad software, San Diego, Calif.) where data was fitted to equation 1. Y=Bottom+(Top−Bottom)/(1+10^((Log IC50−X)*HillSlope)) Equation 1
IC50 values were determined from the concentration of compound that reduced the total activity by 50% and represent the mean of n≥2.

IC50 [nM] | SMILES
6 | Cc1nnn(Cc2cc(C(F)(F)F)ccc2/C=C/C(=O)N2CCN(Cc3ccc(OCCOCCF)cn3)C[C@H]2C)n1
13 | COc1cc(CN2CCN(C(=O)/C=C/c3ccc(Cl)cc3Cn3nnc(C)n3)CC2)ccn1
5 | Cc1nnn(Cc2cc(Cl)ccc2/C=C/C(=O)N2CCN(Cc3ccc(OCCOCCF)cn3)C[C@H]2C)n1
3 | Cc1nnn(Cc2cc(C(F)(F)F)ccc2/C=C/C(=O)N2CCN(Cc3ccc(OCCF)cn3)C[C@H]2C)n1
2 | Cc1nnn(Cc2cc(C(F)(F)F)ccc2CCC(=O)N2CCN(Cc3ccc(OCCF)cn3)C[C@H]2C)n1
1.4 | Cc1nnn(Cc2cc(C(F)(F)F)ccc2/C=C/C(=O)N2CCN(Cc3coc(CF)n3)C[C@H]2C)n1
4 | Cc1nnn(Cc2cc(Cl)ccc2/C=C/C(=O)N2CCN(Cc3ccc(OCCF)cn3)C[C@H]2C)n1

— patent US10450298B2, “PET Imaging agents” (Novartis AG, priority 2015, dated 2019)
